Data set [1] addresses T1, Serine/threonine-protein kinase SIK2 (Homo sapiens, UniProt Q9H0K1). Briefly: Inhibition of SIK2 (unknown origin) assessed as residual activity at 0.1 uM relative to control.
Target sequence in this assay (Q9H0K1 whole entry, looked up): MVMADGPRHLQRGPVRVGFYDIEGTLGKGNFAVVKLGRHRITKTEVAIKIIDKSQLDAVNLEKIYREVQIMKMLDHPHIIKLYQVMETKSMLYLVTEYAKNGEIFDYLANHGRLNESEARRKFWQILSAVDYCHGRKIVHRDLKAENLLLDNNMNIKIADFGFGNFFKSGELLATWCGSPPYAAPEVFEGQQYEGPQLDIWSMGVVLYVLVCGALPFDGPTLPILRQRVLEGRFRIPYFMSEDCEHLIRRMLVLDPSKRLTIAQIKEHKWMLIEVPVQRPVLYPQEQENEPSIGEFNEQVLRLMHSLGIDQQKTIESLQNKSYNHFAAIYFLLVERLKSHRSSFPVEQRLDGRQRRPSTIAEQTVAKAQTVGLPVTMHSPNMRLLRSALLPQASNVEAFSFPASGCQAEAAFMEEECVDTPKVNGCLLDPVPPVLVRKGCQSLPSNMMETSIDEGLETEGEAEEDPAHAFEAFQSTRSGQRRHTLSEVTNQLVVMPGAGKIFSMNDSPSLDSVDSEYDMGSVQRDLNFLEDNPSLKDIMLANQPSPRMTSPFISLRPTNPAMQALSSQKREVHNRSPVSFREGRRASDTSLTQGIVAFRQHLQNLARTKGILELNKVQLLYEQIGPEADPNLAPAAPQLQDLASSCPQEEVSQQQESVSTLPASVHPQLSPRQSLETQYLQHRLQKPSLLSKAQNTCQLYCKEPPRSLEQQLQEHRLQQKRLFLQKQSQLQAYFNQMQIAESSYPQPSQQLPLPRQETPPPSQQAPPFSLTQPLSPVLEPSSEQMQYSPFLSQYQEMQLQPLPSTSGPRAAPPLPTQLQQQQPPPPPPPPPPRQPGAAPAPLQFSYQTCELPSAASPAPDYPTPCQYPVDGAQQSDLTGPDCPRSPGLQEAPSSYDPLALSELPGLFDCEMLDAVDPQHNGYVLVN
Data set [2] addresses T2, Serine/threonine-protein kinase SIK3 (Homo sapiens, UniProt Q9Y2K2). Briefly: Inhibition of SIK3 (unknown origin) assessed as residual activity at 0.1 uM relative to control.
Target sequence in this assay (Q9Y2K2 whole entry, looked up): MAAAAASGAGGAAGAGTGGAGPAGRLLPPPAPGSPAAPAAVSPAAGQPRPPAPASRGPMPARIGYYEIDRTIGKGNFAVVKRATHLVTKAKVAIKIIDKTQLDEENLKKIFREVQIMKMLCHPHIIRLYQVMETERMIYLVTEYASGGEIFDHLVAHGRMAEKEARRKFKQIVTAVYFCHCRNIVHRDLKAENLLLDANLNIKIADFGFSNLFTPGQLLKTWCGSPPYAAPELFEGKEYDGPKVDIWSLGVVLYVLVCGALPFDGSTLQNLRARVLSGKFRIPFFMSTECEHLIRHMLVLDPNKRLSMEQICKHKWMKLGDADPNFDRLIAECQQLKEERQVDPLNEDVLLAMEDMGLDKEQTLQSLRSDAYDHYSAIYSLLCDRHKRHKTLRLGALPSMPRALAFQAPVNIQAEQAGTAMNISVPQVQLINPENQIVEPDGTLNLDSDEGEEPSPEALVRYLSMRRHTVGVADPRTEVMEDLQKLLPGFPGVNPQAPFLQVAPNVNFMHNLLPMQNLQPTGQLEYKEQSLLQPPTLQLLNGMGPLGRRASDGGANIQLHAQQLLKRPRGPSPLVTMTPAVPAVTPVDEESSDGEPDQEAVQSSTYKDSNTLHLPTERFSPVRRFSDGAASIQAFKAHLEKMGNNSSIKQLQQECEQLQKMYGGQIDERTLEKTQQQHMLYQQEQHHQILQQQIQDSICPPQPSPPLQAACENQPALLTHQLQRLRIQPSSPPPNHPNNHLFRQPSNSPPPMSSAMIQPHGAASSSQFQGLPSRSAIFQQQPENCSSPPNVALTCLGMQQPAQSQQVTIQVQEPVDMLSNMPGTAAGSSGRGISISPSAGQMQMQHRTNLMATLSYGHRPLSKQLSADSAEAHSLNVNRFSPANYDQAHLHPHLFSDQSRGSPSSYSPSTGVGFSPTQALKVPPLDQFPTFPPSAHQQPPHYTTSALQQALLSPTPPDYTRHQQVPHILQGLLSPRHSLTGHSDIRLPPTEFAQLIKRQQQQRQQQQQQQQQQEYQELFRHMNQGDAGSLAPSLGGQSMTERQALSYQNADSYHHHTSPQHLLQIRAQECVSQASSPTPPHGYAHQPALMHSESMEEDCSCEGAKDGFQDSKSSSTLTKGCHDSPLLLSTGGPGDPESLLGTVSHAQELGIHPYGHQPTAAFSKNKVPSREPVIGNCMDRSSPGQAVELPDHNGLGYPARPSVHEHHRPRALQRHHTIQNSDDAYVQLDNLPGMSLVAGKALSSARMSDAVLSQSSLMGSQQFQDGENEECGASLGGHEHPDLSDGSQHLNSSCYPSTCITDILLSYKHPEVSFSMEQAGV
Data set [3] can be described thus: Metabolic stability in human liver microsomes assessed as half life. Type of data set: ADME, Microsome. (In general: Liver microsomes are a subcellular fraction often used to study metabolism.)
Data set [4] has as its system BMDM. Briefly: Anti-inflammatory activity against C57BL/6J mouse BMDM cells assessed as decrease in IL-12 level at 500 nM preincubated for 1 hr followed by LPS stimulation measured after 4 to 8 hrs by ELISA method. The conditions noted are these: time 5-9 hrs. Format: functional, cell-based. A general note: An ELISA detects its analyte on a solid surface through an enzyme-linked reagent.

The nature of data set [5]: Half life in Sprague-Dawley rat at 5 mg/kg, po measured upto 24 hrs by LC/MS/MS analysis. Format: ADME, organism-based. Particulars: in vivo.
A short description of data set [6]: Metabolic stability in mouse liver microsomes assessed as half life. Format: ADME, Microsome.
The nature of data set [7]: Cmax in Sprague-Dawley rat at 5 mg/kg, po measured upto 24 hrs by LC/MS/MS analysis. Type of data set: ADME, organism-based. More on the design: time < 24 hrs, dose 5 mg/kg, route po. The conditions noted are these: in vivo.
Data set [8] has as its system BMDM. Briefly: Anti-inflammatory activity against C57BL/6J mouse BMDM cells assessed as decrease in IL-12 level upto 500 nM preincubated for 1 hr followed by LPS stimulation measured after 8 hrs by ELISA method. Particulars: time 9.0 hrs. Type of data set: functional, cell-based.
Data set [9] in a line: Half life in Sprague-Dawley rat at 5 mg/kg, iv measured upto 24 hrs by LC/MS/MS analysis. Type of data set: ADME, organism-based. The conditions noted are these: in vivo.
Data set [10] can be described thus: AUC (0 to t) in Sprague-Dawley rat at 5 mg/kg, po measured upto 24 hrs by LC/MS/MS analysis. Format: ADME, organism-based. More on the design: time < 24 hrs, dose 5 mg/kg, route po. The conditions noted are these: in vivo.
The nature of data set [11]: Oral bioavailability in Sprague-Dawley rat at 5 mg/kg measured upto 24 hrs by LC/MS/MS analysis. Format: ADME, organism-based. Particulars: in vivo.
Data set [12] can be described thus: Clearance in Sprague-Dawley rat at 5 mg/kg, iv measured upto 24 hrs by LC/MS/MS analysis. Format: ADME, organism-based. Particulars: in vivo.
Data set [13] can be described thus: Tmax in Sprague-Dawley rat at 5 mg/kg, po measured upto 24 hrs by LC/MS/MS analysis. Type of data set: ADME, organism-based. The conditions noted are these: in vivo.
Data set [14] has as its system BMDM. Briefly: Anti-inflammatory activity against C57BL/6J mouse BMDM cells assessed as decrease in IL-12 level at 500 nM preincubated for 1 hr followed by LPS stimulation measured after 8 hrs by ELISA method. Type of data set: functional, cell-based. Particulars: time 9.0 hrs.
The subject of data set [15] is BMDM. Briefly: Anti-inflammatory activity against C57BL/6J mouse BMDM cells assessed as increase in IL-10 level at 500 nM preincubated for 1 hr followed by LPS stimulation measured after 2 to 8 hrs by ELISA method. Format: functional, cell-based. The conditions noted are these: time 3-9 hrs.
Data set [16] concerns BMDM. Briefly: Cytotoxicity against C57BL/6J mouse BMDM cells assessed as cell viability upto 500 nM preincubated for 1 hr followed by LPS stimulation measured after 2 to 4 hrs by CCK8 assay. Format: toxicity, cell-based. Particulars: 0.5 µM, time 3-5 hrs. (In general: Tetrazolium assays rely on reduction of a dye to a coloured formazan, in cell work by metabolically active cells.)

Data set [17] can be described thus: AUC (0 to t) in Sprague-Dawley rat at 5 mg/kg, iv measured upto 24 hrs by LC/MS/MS analysis. Type of data set: ADME, organism-based. More on the design: time < 24 hrs, dose 5 mg/kg, route iv. Particulars: in vivo.
Data set [18] is described as follows: Tmax in Sprague-Dawley rat at 5 mg/kg, iv measured upto 24 hrs by LC/MS/MS analysis. Particulars: in vivo. Format: ADME, organism-based.
A short description of data set [19]: Protein binding in human plasma at 10 uM measured for 8 hrs by dialysis method. Type of data set: ADME, cell-free. Particulars: read-out: PPB (converted).
Data set [20] is described as follows: Clearance in Sprague-Dawley rat at 5 mg/kg, po measured upto 24 hrs by LC/MS/MS analysis. Type of data set: ADME, organism-based. The conditions noted are these: in vivo.
Data set [21] can be described thus: Cmax in Sprague-Dawley rat at 5 mg/kg, iv measured upto 24 hrs by LC/MS/MS analysis. The conditions noted are these: in vivo. Type of data set: ADME, organism-based. More on the design: dose 5 mg/kg, time < 24 hrs, route iv.
Data set [22] has as its target T3, Serine/threonine-protein kinase SIK1 (Homo sapiens, UniProt P57059). Briefly: Inhibition of SIK1 (unknown origin) assessed as residual activity at 0.1 uM relative to control.
Data set [23] in a line: Selectivity ratio of IC50 for SIK1 (unknown origin) to IC50 for SIK2 (unknown origin).
Data set [24] addresses T1, Serine/threonine-protein kinase SIK2. Briefly: Inhibition of SIK2 (unknown origin).
Target sequence in this assay (Q9H0K1 whole entry): as the sequence (Q9H0K1 whole entry, looked up) above
Data set [25] concerns the target T2, Serine/threonine-protein kinase SIK3. Briefly: Inhibition of SIK3 (unknown origin).
Target sequence in this assay (Q9Y2K2 whole entry): as the sequence (Q9Y2K2 whole entry, looked up) above
Data set [26] in a line: Selectivity ratio of IC50 for SIK3 (unknown origin) to IC50 for SIK2 (unknown origin).
In data set [27] the target is T3, Serine/threonine-protein kinase SIK1. Briefly: Inhibition of SIK1 (unknown origin).
A short description of data set [28]: Protein binding in mouse plasma. Type of data set: ADME, cell-free. The conditions noted are these: read-out: PPB.

Activity calls are given as the source filed them.

For orientation: half-life means the time needed for the level to fall by half in the phase considered. What is called Cmax is the highest concentration seen after dosing. The term AUC(0-t) denotes the area under the concentration-time curve up to a stated or last time point. A higher AUC(0-t) goes with high exposure. For orientation: bioavailability means dose-corrected exposure relative to a reference, in per cent. High values mean much systemic uptake, low ones little systemic uptake. What is called clearance is the rate of elimination divided by the concentration. A high value points to a high capacity for elimination. As a reminder, the Tmax is the time from dosing to the highest level. One may read the CL/F as the apparent clearance, not corrected for the fraction that reaches the circulation. The term IC50 denotes the midpoint of a concentration-inhibition curve. A higher IC50 goes with weaker potency in that assay.

T3 sequence (P57059 whole entry): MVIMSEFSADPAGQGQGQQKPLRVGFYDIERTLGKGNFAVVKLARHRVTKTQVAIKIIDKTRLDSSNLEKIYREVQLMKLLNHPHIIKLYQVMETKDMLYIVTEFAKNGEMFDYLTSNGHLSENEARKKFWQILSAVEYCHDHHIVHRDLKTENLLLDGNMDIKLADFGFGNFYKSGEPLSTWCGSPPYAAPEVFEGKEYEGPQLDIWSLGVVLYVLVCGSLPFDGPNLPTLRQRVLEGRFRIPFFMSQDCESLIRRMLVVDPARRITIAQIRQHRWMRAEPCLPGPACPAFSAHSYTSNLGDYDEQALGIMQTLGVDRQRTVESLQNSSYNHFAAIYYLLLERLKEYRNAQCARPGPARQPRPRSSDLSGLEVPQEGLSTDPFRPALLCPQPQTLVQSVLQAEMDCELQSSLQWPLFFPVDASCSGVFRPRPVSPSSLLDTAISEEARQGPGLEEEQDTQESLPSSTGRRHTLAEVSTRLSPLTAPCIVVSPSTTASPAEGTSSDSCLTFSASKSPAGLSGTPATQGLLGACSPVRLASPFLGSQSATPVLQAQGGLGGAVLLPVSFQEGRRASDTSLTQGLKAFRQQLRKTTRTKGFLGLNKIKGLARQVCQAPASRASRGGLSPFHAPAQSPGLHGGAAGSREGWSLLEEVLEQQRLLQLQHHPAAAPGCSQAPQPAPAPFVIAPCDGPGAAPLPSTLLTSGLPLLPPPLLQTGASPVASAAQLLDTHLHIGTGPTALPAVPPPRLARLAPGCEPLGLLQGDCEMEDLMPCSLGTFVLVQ

As to `COc1cccc(C)c1NC(=O)c1cnc(Nc2ccc(N3CCN(C)CC3)cc2)nc1NC1CCC1`, the Activity in [1] was 107%; in data set [2], 93%. Besides, the half-life in data set [3] was 31.9 min.

In the case of `COc1ccc(N(C(=O)Nc2c(C)cccc2C)c2cc(Nc3ccc(N4CCN(C)CC4)cc3)ncn2)c(OC)c1`, in the data set with BMDM [4], the result was inactive. In addition, the half-life in data set [5] was 150 min; in data set [6], 11 min; in data set [9], 210 min; in data set [3], 14.4 min. Besides, the Cmax came to 149 ng/mL in [7] and 1290 ng/mL in [21]. Moreover, the result in the data set with BMDM [8], in the data set with BMDM [14] and with BMDM [15] was Active. The AUC(0-t) at 24 h in data set [10] turned out to be 522 ng·h/mL; in data set [17], 1110 ng·h/mL. In data set [11], the bioavailability turned out to be 47.2%. The molecule also gave a clearance in [12] of 76.7 mL/min/kg. Besides, the Tmax in data set [13] is 78 min; in data set [18], 6 min. In the data set on BMDM [16], the Activity result was “Non-Toxic”. Also, the fraction unbound at 8 h, 10 µM in data set [19] was below 0.01. In addition, the CL/F in data set [20] was 223 mL/min/kg.

As to `Cc1cccc(C)c1NC(=O)c1cnc(Nc2ccc(N3CCN(C)CC3)cc2)nc1NC(C)C`, the half-life in data set [3] stood at 24.3 min.

For `CN1CCN(c2ccc(Nc3ncc(C(=O)Nc4ccccc4F)c(NC4CCC4)n3)cc2)CC1`, the results for the Activity in data set [1], in [22] and in data set [2] were 22%, 124% and 100%, respectively. Besides, the half-life in data set [3] came out at 45.6 min.

Consider `Cc1cccc(C)c1NC(=O)c1cnc(Nc2ccc(N3CCN(C)CC3)cc2)nc1NC1CCC1`, for which, in data set [3], the half-life worked out at 44.7 min.

As for `Cc1cccc(C)c1NC(=O)c1cnc(Nc2ccc(N3CCN(C)CC3)cc2)nc1NC1CCCCC1`, the half-life in data set [3] came out at 37.3 min.

Consider `Cc1cccc(F)c1NC(=O)c1cnc(Nc2ccc(N3CCN(C)CC3)c(F)c2)nc1NC1CC1`, for which the Ratio IC50 in data set [23] turned out to be 2.7; in data set [26], 8.5. In addition, the results for the half-life in [5], in data set [9] and in data set [3] were 234 min, 366 min and 73.7 min, respectively. In addition, the IC50 was 6 nM in [24], 51 nM in data set [25] and 16 nM in data set [27]. The Cmax in data set [7] came to 52.2 ng/mL; in [21], 1540 ng/mL. Moreover, the AUC(0-t) at 24 h in data set [10] worked out at 432 ng·h/mL; in data set [17], 1850 ng·h/mL. This molecule returned a bioavailability in data set [11] of 23.4%. The clearance in data set [12] is 51.7 mL/min/kg. The Tmax in data set [13] amounted to 222 min; in data set [18] it was 6 min. The CL/F in data set [20] was 315 mL/min/kg.

`Cc1cccc(Br)c1NC(=O)c1cnc(Nc2ccc(N3CCN(C)CC3)cc2)nc1NC1CCC1`: the results for the Activity in data set [1] and in data set [2] were 52% and 66%, respectively. Also, the half-life in data set [3] came out at 21.5 min.

`CNc1nc(Nc2ccc(N3CCN(C)CC3)cc2)ncc1C(=O)Nc1c(C)cccc1C`: the half-life in data set [3] was found to be 17.5 min.

Turning to `CN1CCN(c2ccc(Nc3ncc(C(=O)Nc4c(F)cccc4F)c(NC4CCC4)n3)cc2)CC1`, the Activity came to 10% in [1], 12% in data set [22] and 93% in data set [2]. The half-life in data set [3] was 49.5 min.

For the molecule `COc1cc(N2CCN(C)CC2)ccc1Nc1ncc(C(=O)Nc2c(C)cccc2C)c(NC2CCC2)n1`, the half-life in data set [3] came to 44.1 min.

As for `Cc1cccc(C)c1NC(=O)c1cnc(Nc2ccc(N3CCNCC3)cc2)nc1NC1CCC1`, in [3], the half-life came to 33 min.

Regarding `Cc1cccc(C)c1NC(=O)c1cnc(Nc2ccc(CN3CCOCC3)cc2)nc1NC1CCC1`, in data set [3], the half-life is 6.5 min.

As to `Cc1cccc(F)c1NC(=O)c1cnc(Nc2ccc(N3CCN(C)CC3)cc2)nc1NC1CCC1`, the Activity in data set [1] was 1%; in data set [2], 9%. The half-life in data set [3] worked out at 69.3 min.

For the molecule `COc1cc(Nc2ncc(C(=O)Nc3c(C)cccc3C)c(NC3CC3)n2)ccc1N1CCN(C)CC1`, the half-life in data set [3] was determined as 52.1 min.

Regarding `Cc1cccc(Cl)c1NC(=O)c1cnc(Nc2ccc(N3CCN(C)CC3)cc2)nc1NC1CCC1`, the Activity in [1] is 20%; in [22], 31%; in data set [2] it was 68%. The half-life in [3] was determined as 43.3 min.

For the molecule `COc1ccc(Nc2nc(Nc3ccc(N4CCN(C)CC4)cc3)ncc2C(=O)Nc2c(C)cccc2C)c(OC)c1`, the half-life in data set [3] is above 120 min.

In the case of `COc1ccc(N2C(=O)N(c3c(C)cccc3Cl)Cc3cnc(Nc4ccc(N5CCN(C)CC5)cc4)nc32)nc1`, the half-life in data set [6] stood at 27 min.

For the molecule `COc1ccc(N2C(=O)N(c3c(C)cccc3Cl)Cc3cnc(Nc4ccc(C5CCN(C)CC5)cc4OC)nc32)nc1`, the half-life in data set [6] was above 120 min. The fraction unbound in data set [28] was above 0.06.

Regarding `Cc1cccc(C)c1NC(=O)c1cnc(Nc2ccc(N3CCN(C)CC3)c(F)c2)nc1NC1CC1`, in [3], the half-life is 60.3 min.

As for `Cc1cccc(C)c1NC(=O)c1cnc(Nc2ccc(N3CCN(C)CC3)c(F)c2)nc1NC1CCC1`, the half-life in data set [3] worked out at 62.4 min.

Regarding `Cc1cccc(C)c1NC(=O)c1cnc(Nc2ccc(N3CCN(C)CC3)c(Cl)c2)nc1NC1CCC1`, the half-life in data set [3] was 56.6 min.

In the case of `Cc1cccc(C)c1NC(=O)c1cnc(Nc2ccc(N3CCN(C)CC3)cc2)nc1NC1CCCC1`, the half-life in data set [3] was determined as 32.4 min.

For the molecule `Cc1cccc(C)c1NC(=O)c1cnc(Nc2ccc(N3CCN(C)CC3)cc2)nc1NC1CC1`, in data set [3], the half-life stood at 40.8 min.

Take `COc1cc(Nc2ncc(C(=O)Nc3c(C)cccc3C)c(NC3CCC3)n2)ccc1N1CCN(C)CC1`: the half-life in data set [3] was 48.6 min.

As for `Cc1cccc(C)c1NC(=O)c1cnc(Nc2ccc(N3CCN(C)CC3)cc2F)nc1NC1CCC1`, the half-life in [3] was above 120 min.

For the origin of these results see ChEMBL document CHEMBL5370540, “Discovery of pyrimidine-5-carboxamide derivatives as novel salt-inducible kinases (SIKs) inhibitors for inflammatory bowel disease (IBD) treatment” (Eur J Med Chem, 2023).
